Test results from PMC9966338, “Inhibitory Potential of α-Amylase, α-Glucosidase, and Pancreatic Lipase by a Formulation of Five Plant Extracts: TOTUM-63” (International Journal of Molecular Sciences, 2023).
Like-named read-outs stand apart in the source and are kept apart here.

Experiments:
α-amylase = system: α-amylase; parameters: method as in PMID 30050443; conditions: based on IC50 values; cited from earlier work
[1] = biological target: T1, α-Glucosidase (maltase from Saccharomyces cerevisiae) (Saccharomyces cerevisiae, UniProt P53341); test: biochemical; format: biochemical
T1 construct: purchased Merck/Sigma-Aldrich
Source text: Chrysanthellin B was purchased from Extrasynthese (Genay, France). 2-(N-morpholino)-ethanesulfonic acid (MES) buffer was purchased from ThermoFisher Scientific (Waltham, Massachusetts, USA). NaN3 was obtained from Carlo Erba Reagents (Val-de-Reuil, France). Pure water was obtained using an Evoqua ultra-pure water production system (Water Technologies, Günzburg, Germany). The RED-NHS protein labeling kit was from NanoTemper Technologies (Munich, Germany).
α-Glucosidase hydrolytic activity was assessed by monitoring the conversion of p-nitrophenyl-α-D-glucopyranoside (PNPg) into p-nitrophenol (PNP). PNP levels were quantified at 405 nm. […] A series of PNP dilutions in buffer was used to generate the standard curve to convert PNP absorbance values into concentrations. The final α-glucosidase concentration corresponded to an activity of 30 µM of PNP/min for negative control without inhibitor. In each microplate well, 20 µL of test products diluted in a 50:50 (v:v) water:ethanol mixture (or 20 µL of this solvent mixture for the negative controls), 20 µL of α-glucosidase in buffer (or 20 µL of buffer for the blanks), and 100 µL of buffer were incubated in a microplate reader at 37 °C for 10 min. Then, 20 µL of PNPg substrate (2.5 mM in buffer) was added to each well to initiate the reaction. A FLUO Star Omega (BMG LabTech, Champigny sur Marne, France) 96-well microplate reader, thermostatically controlled at 37 °C, was used to measure the absorbance at 405 nm, every minute for 30 min. […] (1) % Relative activity=Residual activity/Negative control activity×100

α-glucosidase [2] = conditions: cited from earlier work
lipase = system: lipase; parameters: method as in PMID 36105167; conditions: based on IC50 values; cited from earlier work
α-glucosidase [3] = biological target: T2, α-glucosidase (Saccharomyces cerevisiae, UniProt P53341); test: Interactions with α-glucosidase by fluorescence spectrum changes; format: binding; conditions: excitation 285 nm, emission 320–440 nm
T2 construct: purchased Merck/Sigma-Aldrich
Description: Potassium phosphate buffer (0.1 M, pH 6.8) was used as the reaction buffer. The final α-glucosidase concentration in the wells was 1.275 mg/mL. For each microplate well, 20 µL of test product in a 50:50 (v:v) water:ethanol mixture (or 20 µL of this solvent mixture for the controls without products), 100 µL of α-glucosidase in buffer (or 100 µL of buffer for the blanks), and 40 µL of buffer were incubated at 25 °C in a microplate reader for 5 min. Then, fluorescence was measured at an excitation of 285 nm and an emission scan ranging from 320 nm to 440 nm.

[4] = biological target: T1, α-Glucosidase (maltase from Saccharomyces cerevisiae); test: α-Glucosidase inhibition kinetics (Lineweaver–Burk, SigmaPlot fit); format: biochemical
Description: α-glucosidase inhibition kinetics was investigated in vitro using the method described in Section 4.2.1. Inhibition models were determined by analysis of the Lineweaver–Burk plots using four concentrations of substrate and four concentrations of test products (including a “0”, without inhibitor). All initial rates were fitted to all enzymatic kinetic models with one substrate and one inhibitor provided by the Enzyme Kinetics Module of Sigma Plot 12 (Systat Software Inc., San Jose, CA, USA), using non-linear least-square regression models to determine the inhibition model and calculate the inhibitory constant (Ki).
Equations (2) and (3) (below) were used for data analysis and corresponded to the inhibition models that best fitted our data according to the SigmaPlot software 12 (Systat Software Inc., San Jose, CA, USA) [73]. […] Ki’ corresponds to the second inhibitor dissociation constant because, in a mixed model, the constants for E + I ↔ EI and ES + I ↔ ESI are different. Factor α, given by SigmaPlot (Systat Software Inc., San Jose, CA, USA), represents the equilibrium between Ki’ and Ki. (2) v =Vmax/1+(Km/[S])×(1+[I]/Ki) (3) v =Vmax/(1+[I]/Ki^’)+Km/[S]×(1+[I]/Ki)

T1 sequence (P53341 whole entry): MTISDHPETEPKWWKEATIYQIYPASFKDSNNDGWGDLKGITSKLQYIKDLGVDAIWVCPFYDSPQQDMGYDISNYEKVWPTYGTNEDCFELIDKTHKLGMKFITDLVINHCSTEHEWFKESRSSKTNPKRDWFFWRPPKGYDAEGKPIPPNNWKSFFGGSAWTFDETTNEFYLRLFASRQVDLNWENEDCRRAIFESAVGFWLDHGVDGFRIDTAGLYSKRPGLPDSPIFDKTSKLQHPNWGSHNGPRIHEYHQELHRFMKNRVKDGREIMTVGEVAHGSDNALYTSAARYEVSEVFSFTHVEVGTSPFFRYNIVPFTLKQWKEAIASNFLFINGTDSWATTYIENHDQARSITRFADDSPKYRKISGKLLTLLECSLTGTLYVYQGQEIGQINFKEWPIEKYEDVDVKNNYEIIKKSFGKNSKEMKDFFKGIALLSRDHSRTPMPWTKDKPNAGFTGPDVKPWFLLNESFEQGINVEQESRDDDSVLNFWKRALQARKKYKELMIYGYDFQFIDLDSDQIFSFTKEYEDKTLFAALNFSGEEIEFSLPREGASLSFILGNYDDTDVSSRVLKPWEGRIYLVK
T2 sequence (P53341 whole entry): as above

## O=C(/C=C/c1ccc(O)c(O)c1)O[C@H]1[C@H](O)C[C@](O)(C(=O)O)C[C@H]1OC(=O)/C=C/c1ccc(O)c(O)c1 [4,5-dicaffeoylquinic acid]
α-amylase
  inhibitory activity on α-amylase, times higher than acarbose: 11.4 times

## C/C=C1/[C@H](O[C@@H]2O[C@H](CO)[C@@H](O)[C@H](O)[C@H]2O)OC=C(C(=O)OC)[C@H]1CC(=O)OCCc1ccc(O)c(O)c1 [Oleuropein]
[1]
  IC50: 5.74 µM

## O=C(/C=C/C=C/c1ccc2c(c1)OCO2)N1CCCCC1 [Piperine]
α-glucosidase [2]
  α-glucosidase inhibition mechanism: mixed

## O=C(/C=C/c1ccc(O)c(O)c1)O[C@@H]1C[C@@](OC(=O)/C=C/c2ccc(O)c(O)c2)(C(=O)O)C[C@@H](O)[C@@H]1O [cynarin]
α-amylase
  inhibitory activity on α-amylase, times higher than acarbose: 4.8 times

## O=C1C[C@@H](c2ccc(O)c(O)c2)Oc2cc(O)cc(O)c21 [eriodictyol]
lipase
  lipase inhibitory activity relative to orlistat: more than two times higher

## O=c1cc(-c2ccc(O)c(O)c2)oc2cc(O[C@@H]3O[C@H](CO)[C@@H](O)[C@H](O)[C@H]3O)cc(O)c12 [luteolin-7-O-glucoside]
lipase
  lipase inhibitory activity relative to orlistat: more than two times higher

## O=c1cc(-c2ccc(O)c(O)c2)oc2cc(O)cc(O)c12 [Luteolin]
[1]
  IC50: 1.4 µM
α-glucosidase [2]
  α-glucosidase inhibition mechanism: non-competitive

## O=C(/C=C/c1ccc(O)c(O)c1)O[C@@H]1CC(O)(C(=O)O)C[C@@H](OC(=O)/C=C/c2ccc(O)c(O)c2)C1O (stereo partly drawn) [3,5-dicaffeoylquinic acid]
α-amylase
  inhibitory activity on α-amylase, times higher than acarbose: 9.4 times

## C[C@H]1O[C@H](O[C@H]2[C@H](O)[C@@H](O)[C@@H](O[C@H]3[C@H](O)[C@@H](O)C(O)O[C@@H]3CO)O[C@@H]2CO)[C@H](O)[C@@H](O)[C@@H]1N[C@H]1C=C(CO)[C@@H](O)[C@H](O)[C@H]1O (stereo partly drawn) [Acarbose, acarbose]
α-glucosidase [3]
  α-glucosidase fluorescence intensity with increasing concentrations: less obvious effect
[4]; best-fitting model
  Inhibition type: Competitive (full)
[4]; α-glucosidase in the presence of the inhibitor
  Vmax: 0.00182 mM/min

## O=C(/C=C/c1ccc(O)c(O)c1)O[C@@H]1[C@H](O)C[C@@](O)(C(=O)O)C[C@H]1OC(=O)/C=C/c1ccc(O)c(O)c1 [3,4-dicaffeoylquinic acid]
α-amylase
  inhibitory activity on α-amylase, times higher than acarbose: 7.2 times

## O=C(/C=C/c1ccc(O)c(O)c1)O[C@@H]1C[C@](O)(C(=O)O)C[C@@H](O)[C@H]1O [Chlorogenic acid]
α-glucosidase [2]
  α-glucosidase inhibition mechanism: mixed

## CC1OC(OC2C(O)COC(OC3C(C)OC(OC4C(OC(=O)C56CCC(C)(C)CC5C5=CCC7C8(C)CCC(OC9OC(CO)C(O)C(O)C9O)C(C)(CO)C8CCC7(C)C5(C)CC6O)OCC(O)C4O)C(O)C3O)C2O)C(O)C(O)C1O (stereo not drawn) [Chrysanthellin B]
[1]
  inhibitory effect on α-glucosidase relative to acarbose: five times lower
[1]; PNPg substrate, pH 6.8, 37 °C, read-out: IC50 α-Glucosidase (converted)
  IC50: 127 µM

## O=C(/C=C/c1ccc(O)c(O)c1)O[C@@H]1C[C@](OC(=O)/C=C/c2ccc(O)c(O)c2)(C(=O)O)C[C@@H](O)[C@H]1O [1,5-dicaffeoylquinic acid]
α-amylase
  inhibitory activity on α-amylase, times higher than acarbose: 6.2 times

## CC1(C)CC[C@]2(C(=O)O)CC[C@]3(C)C(=CC[C@@H]4[C@@]5(C)CC[C@H](O)C(C)(C)[C@@H]5CC[C@]43C)[C@@H]2C1 [Oleanolic acid]
α-glucosidase [2]
  inhibitory activity on α-glucosidase, times higher than acarbose: 162 times
